Experimental data published in US8012939B2 (Tibotec Pharmaceuticals Ltd. Co, priority 2005, dated 2011).
pEC50, pKi: −log10 of the molar value.

How the values were obtained:
[1] = molecular target: T1, HCV NS3/4A protease complexes (full-length hepatitis C NS3 protease enzyme with NS4A cofactor) (Hepatitis C virus genotype 1a, UniProt P27958); assay: Inhibition assay (enzymatic assay, depsipeptide substrate hydrolysis); format: biochemical; details: enzyme 1 nM, 25 μM NS4A cofactor, 0.5 μM substrate, 30° C., pH 7.5, model for competitive inhibition
T1 construct: full-length hepatitis C NS3 protease enzyme
Method: [Landro, 1997 #Biochem 36 9340-9348]. […] The solutions were stored at −20° C. between measurements.
[Liu, 1999 Analytical Biochemistry 267 331-335].

[2] = system: HCV replicons (HCV type 1b, Huh-7 luc/neo cells); assay: Replicon assay (Huh-Luc cells, luciferase read-out); format: cell-based; details: Hepatitis C virus, Huh-7, 72 h, Huh-Luc cells, incubation of three days, luciferase activity
From the text: The compounds of formula (I) were examined for activity in the inhibition of HCV RNA replication in a cellular assay. […] The cellular assay was based on a bicistronic expression construct, as described by Lohmann et al. (1999) Science vol. 285 pp. 110-113 with modifications described by Krieger et al. (2001) Journal of Virology 75: 4614-4624, in a multi-target screening strategy. In essence, the method was as follows.
The assay utilized the stably transfected cell line Huh-7 luc/neo (hereafter referred to as Huh-Luc). This cell line harbors an RNA encoding a bicistronic expression construct comprising the wild type NS3-NS5B regions of HCV type 1b translated from an Internal Ribosome Entry Site (IRES) from encephalomyocarditis virus (EMCV), preceded by a reporter portion (FfL-luciferase), and a selectable marker portion (neo^R, neomycine phosphotransferase). The construct is bordered by 5′ and 3′ NTRs (non-translated regions) from HCV type 1b. Continued culture of the replicon cells in the presence of G418 (neo^R) is dependent on the replication of the HCV RNA. The stably transfected replicon cells that express HCV RNA, which replicates autonomously and to high levels, encoding inter alia luciferase, are used for screening the antiviral compounds.
The replicon cells were plated in 384 well plates in the presence of the test and control compounds which were added in various concentrations. Following an incubation of three days, HCV replication was measured by assaying luciferase activity (using standard luciferase assay substrates and reagents and a Perkin Elmer ViewLux™ ultraHTS microplate imager). Replicon cells in the control cultures have high luciferase expression in the absence of any inhibitor. The inhibitory activity of the compound on luciferase activity was monitored on the Huh-Luc cells, enabling a doseresponse curve for each test compound.

T1 sequence (P27958 1027-1657, one chain of several): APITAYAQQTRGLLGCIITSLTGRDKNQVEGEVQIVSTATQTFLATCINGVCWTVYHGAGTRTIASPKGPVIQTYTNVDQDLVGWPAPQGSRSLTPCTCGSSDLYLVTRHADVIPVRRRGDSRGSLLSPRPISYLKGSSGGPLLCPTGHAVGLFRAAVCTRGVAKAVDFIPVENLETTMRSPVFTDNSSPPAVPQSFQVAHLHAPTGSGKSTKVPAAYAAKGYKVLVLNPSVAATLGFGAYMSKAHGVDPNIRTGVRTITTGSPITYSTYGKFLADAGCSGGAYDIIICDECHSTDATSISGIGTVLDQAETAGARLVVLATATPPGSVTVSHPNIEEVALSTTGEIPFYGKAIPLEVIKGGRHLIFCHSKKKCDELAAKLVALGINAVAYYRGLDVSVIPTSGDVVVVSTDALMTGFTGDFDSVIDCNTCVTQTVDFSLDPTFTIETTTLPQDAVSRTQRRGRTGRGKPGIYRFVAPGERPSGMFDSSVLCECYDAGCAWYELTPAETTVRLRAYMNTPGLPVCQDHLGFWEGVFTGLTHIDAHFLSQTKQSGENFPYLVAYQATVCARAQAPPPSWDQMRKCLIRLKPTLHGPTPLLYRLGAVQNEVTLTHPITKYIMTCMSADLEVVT

SMILES | pKi [1] | pEC50 [2]
COc1ccc2c(O[C@@H]3C[C@H]4C(=O)N[C@]5(C(=O)O)C[C@H]5/C=C\CCCCN(C)C(=O)N4C3)nccc2c1Br [Compound 50, 17-(5-bromo-6-methoxyisoquinolin-1-yloxy)-13-methyl-2,14-dioxo-3,13,15-triazatricyclo[13.3.0.0^4,6]octadec-7-ene-4-carboxylic acid] | < 6.00 | –
COc1ccc2c(O[C@@H]3C[C@H]4C(=O)N[C@]5(C(=O)NS(=O)(=O)C6CC6)C[C@H]5/C=C\CCCCN(C)C(=O)N4C3)nccc2c1Br [Compound 51, N-[17-(5-bromo-6-methoxyisoquinolin-1-yloxy)-13-methyl-2,14-dioxo-3,13,15-triaza-tricyclo[13.3.0.0^4,6]octadec-7-ene-4-carbonyl](cyclopropyl)sulfonamide] | 8.77 | 7.24
COc1ccc2c(O[C@@H]3C[C@H]4C(=O)N[C@]5(C(=O)O)C[C@H]5/C=C\CCCCN(C)C(=O)N4C3)nc(-c3ccc(OC(F)(F)F)cc3)cc2c1 [Compound 57, 17-(3-(4-trifluoromethoxyphenyl)-6-methoxyisoquinolin-1-yloxy)-13-methyl-2,14-dioxo-3,13,15-triaza-tricyclo[13.3.0.0^4,6]octadec-7-ene-4-carboxylic acid] | 6.68 | 5.09
COc1ccc(-c2c(OC)ccc3c(O[C@@H]4C[C@H]5C(=O)N[C@]6(C(=O)NS(=O)(=O)C7CC7)C[C@H]6/C=C\CCCCN(C)C(=O)N5C4)nccc23)cc1 [Compound 53, N-[17-[5-(4-methoxyphenyl)-6-methoxyisoquinolin-1-yloxy]-13-methyl-2,14-dioxo-3,13,15-triaza-tricyclo[13.3.0.0^4,6]octadec-7-ene-4-carbonyl](cyclopropyl)sulfonamide] | – | < 5.00
COc1ccc2c(O[C@@H]3C[C@H]4C(=O)N[C@]5(C(=O)NS(=O)(=O)C6CC6)C[C@H]5/C=C\CCCCN(C)C(=O)N4C3)nccc2c1-c1ccccc1 [Compound 54, N-[17-[5-phenyl-6-methoxyisoquinolin-1-yloxy]-13-methyl-2,14-dioxo-3,13,15-triaza-tricyclo[13.3.0.0^4,6]octadec-7-ene-4-carbonyl](cyclopropyl) sulfonamide] | – | < 5.00
COc1ccc2c(O[C@@H]3C[C@H]4C(=O)N[C@]5(C(=O)NS(=O)(=O)C6CC6)C[C@H]5/C=C\CCCCN(C)C(=O)N4C3)ncc(Br)c2c1 [Compound 66, N-[17-(4-bromo-6-methoxyisoquinolin-1-yloxy)-13-methyl-2,14-dioxo-3,13,15-triaza-tricyclo[13.3.0.0^4,6]octadec-7-ene-4-carbonyl](cyclopropyl) sulfonamide] | – | 6.49
COc1ccc2c(O[C@@H]3C[C@H]4C(=O)N[C@]5(C(=O)NS(=O)(=O)C6CC6)C[C@H]5/C=C\CCCCN(C)C(=O)N4C3)nc(-c3ccc(OC(F)(F)F)cc3)cc2c1 [Compound 58, N-[17-(3-(4-trifluoromethoxyphenyl)-6-methoxyisoquinolin-1-yloxy)-13-methyl-2,14-dioxo-3,13,15-triaza-tricyclo[13.3.0.0^4,6]octadec-7-ene-4-carbonyl](cyclopropyl)sulfonamide] | – | 5.64
COc1ccc2c(O[C@@H]3C[C@H]4C(=O)N[C@]5(C(=O)NS(=O)(=O)C6CC6)C[C@H]5/C=C\CCCCN(C)C(=O)N4C3)nccc2c1-c1ccc(C)nc1 [Compound 52] | – | < 5.00
COc1ccc2c(O[C@@H]3C[C@H]4C(=O)N[C@]5(C(=O)O)C[C@H]5/C=C\CCCCN(C)C(=O)N4C3)nc(-c3csc(NC(C)C)n3)cc2c1 [Compound 71, 17-[3-(2-isopropylaminothiazol-4-yl)-6-methoxyisoquinolin-1-yloxy]-13-methyl-2,14-dioxo-3,13,15-triaza-tricyclo[13.3.0.0^4,6]octadec-7-ene-4-carboxylic acid] | – | < 5.00
